Results taken from patent publication US12559505B2, “IDH mutant inhibitor and use thereof” (WIGEN BIOMEDICINE TECHNOLOGY (SHANGHAI) CO., LTD., priority 2020, dated 2026).
Read-outs that look alike come from different tables or passages of the source.

How the values were obtained:
IDH R132C = target: T1, IDH R132C (Homo sapiens, UniProt O75874, R132C); assay: Detection of 2-HG in supernatant of U87-IDH R132C cells; type: cell-based; conditions: 72 h, LC-MS-MS, vs control; for inhibition at 0.001 µM: 1 nM compound, read-out: Inhibition rate of compounds on 2-HG in the supernatant of U87-IDH R132C cells, 1 nM; for inhibition at 0.01 µM: 10 nM compound, read-out: Inhibition rate of compounds on 2-HG in the supernatant of U87-IDH R132C cells, 10 nM; for inhibition at 0.1 µM: 100 nM compound, read-out: Inhibition rate of compounds on 2-HG in the supernatant of U87-IDH R132C cells, 100 nM
T1 construct: expressed in transfected cells; host or cells: U87 cells
T1 sequence (O75874 whole entry R132C): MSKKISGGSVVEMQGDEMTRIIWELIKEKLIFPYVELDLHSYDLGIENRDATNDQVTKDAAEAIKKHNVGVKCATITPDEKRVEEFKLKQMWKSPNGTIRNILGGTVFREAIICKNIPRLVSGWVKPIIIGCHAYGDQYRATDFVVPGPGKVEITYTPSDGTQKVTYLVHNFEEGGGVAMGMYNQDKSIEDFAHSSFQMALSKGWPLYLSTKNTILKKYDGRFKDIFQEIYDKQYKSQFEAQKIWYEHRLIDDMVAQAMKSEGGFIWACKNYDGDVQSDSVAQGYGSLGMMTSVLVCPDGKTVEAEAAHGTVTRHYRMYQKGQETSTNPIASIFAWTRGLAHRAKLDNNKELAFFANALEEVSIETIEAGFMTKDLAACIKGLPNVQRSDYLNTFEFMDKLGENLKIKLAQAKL
Protocol: U87 cells overexpressing the IDH R132C mutation were seeded in a 48-well plate at 50,000 cells/well. After the cells were incubated overnight for adhesion, the supernatant was removed. The cell culture media containing serially diluted compounds were added, and the cells were incubated for 72 h. After 72 h, the cultures were collected and diluted 10-fold with water, and acetonitrile was added to extract the metabolites. The 2-HG content in the cultures was analyzed by LC-MS-MS, and the percentage inhibition of compounds on 2-HG in the supernatant was calculated as compared with the control.

[1] = test system: 2-HG in HT1080 tumor tissues; assay: Detection of 2-HG in HT1080 tumor tissues of nude mice; type: in vivo; conditions: Mus musculus, HT-1080, sc, subcutaneous HT1080, 20 mg/kg
Protocol: Nude mice were inoculated subcutaneously with 1×10^6 HT1080 cells. When the tumor volume reached 100-150 mm^3, the mice were randomly grouped into solvent control group and compounds 1, 70, 79, 85, 96, 139, 157 and LY-3410738 20 mg/kg groups. The tumors were collected three days and seven days after continuous administration, weighed, digested with a digestion solution and then homogenized. The level of 2-HG in the tumor tissues were determined by LC-MS-MS. The percentage inhibition of compounds on 2-HG in tumor tissues was calculated as compared with the control.

[2] = 72 h, three days of continuous administration, read-out: Inhibition rate of compounds on 2-HG in HT1080 tumor tissues, 3 days
[3] = 168 h, seven days of continuous administration, read-out: Inhibition rate of compounds on 2-HG in HT1080 tumor tissues, 7 days

Compound	inhibition at 0.001 µM (IDH R132C) [%]	inhibition at 0.01 µM (IDH R132C) [%]	inhibition at 0.1 µM (IDH R132C) [%]	inhibition in vivo at 20 mg/kg [1, 2] [%]	inhibition in vivo at 20 mg/kg [1, 3] [%]
C=CC(=O)N1CCN(C(CC2CC2)c2ccc([C@H](C)Nc3ncc4c(n3)N(C(C)C)C(=O)NC4)cc2)CC1 (stereo partly shown) [Compound 79]	30 to 60	60 to 90	> 90	50 ± 3	97 ± 1
C=CC(=O)N1CCN([C@@H](CC2CC2)c2ccc([C@H](C)Nc3ncc4c(n3)N(CC)C(=O)OC4)cc2)CC1 [LY-3410738, reference compound]	30 to 60	> 90	> 90	58 ± 11	88 ± 12
C=CC(=O)NC1CCN(C(CC2CC2)c2ccc([C@H](C)Nc3ncc4cnc(=O)n(C(C)C)c4n3)cc2)CC1 (stereo partly shown) [Compound 96]				29 ± 38	78 ± 4
C=CC(=O)N1CCN(C(CC2CCC2)c2ccc([C@H](C)Nc3ncc4c(n3)N(CC)C(=O)OC4)cc2)CC1 (stereo partly drawn) [Compound 139, 7-(((1S)-1-(4-(1-(4-acryloylpiperazin-1-yl)-2-cyclobutylethyl)-phenyl)ethyl)amino)-1-ethyl-1,4-dihydro-2H-pyrimido[4,5-d][1,3]oxazin-2-one]				57 ± 1.8	99 ± 0.4
C=CC(=O)N1CCN(C(CC2CC2)c2ccc([C@H](C)Nc3ncc4cnc(=O)n(C(C)C)c4n3)cc2)CC1 (stereo partly drawn) [Compound 85, 7-(((1S)-1-(4-(1-(4-acryloylpiperazin-1-yl)-2-cyclopropylethyl)phenyl)ethyl)amino)-1-isopropylpyrimidine[4,5-d]pyrimidine-2(1H)-one]	60 to 90	> 90	> 90	57 ± 6	94 ± 3
C=CC(=O)N1CCN(C(CC23CC(C2)C3)c2ccc([C@H](C)Nc3ncc4c(n3)N(CC)C(=O)NC4)cc2)CC1 (stereo partly shown) [Compound 70]	60 to 90	> 90	> 90	62 ± 8	92 ± 5
C=CC(=O)N1CCN(C(CC23CC(C2)C3)c2ccc([C@H](C)Nc3ncc4c(n3)N(CC)C(=O)OC4)cc2)CC1 (stereo partly shown) [Compound 157]	60 to 90	> 90	> 90	60 ± 8	90 ± 7
C=CC(=O)N1CC2(C1)CN(C(CC1CC1)c1ccc([C@H](C)Nc3ncc4c(n3)N(CC)C(=O)OC4)cc1)C2 (stereo partly shown) [Compound 1]	30 to 60	> 90	> 90	54 ± 18	95 ± 0.5
